Data as given in patent publication EP4271680B1, “GOLD (I) COMPLEXES WITH FLUORINATED N-HETEROCYCLIC CARBENE LIGANDS AND USE THEREOF AS THERAPEUTIC AGENTS” (priority 2020, dated 2022).
Like-named read-outs stand apart in the source and are kept apart here.

How the values were obtained:
[1] = test system: amastigotes axéniques de L. infantum; assay: Anti-leishmanial activity on axenic amastigotes of L. infantum (luciferase luminescence)
[2] = test system: lignée cellulaire Thp1; assay: Cytotoxicity by MTT test on Thp1 cell line; assay type: cell-based, humains
Description: (§1) L'évaluation de la cytotoxicité des complexes selon l'invention par test MTT sur la lignée cellulaire Thp1 (lignée cellulaire de monocytes humains) a été réalisée selon Mosmann avec de légères modifications. En bref, les cellules (0,77.10^5 cellules/ml) dans 200 µL du milieu complet [RPMI 1640 supplémenté avec 10% de sérum de veau fœtal (FCS), 2 mM de L-glutamine et des antibiotiques (100 U/ml) pénicilline et 100 µg/ml de streptomycine)]+ PMA (50 ng/ml) ont été ensemencées dans chaque puits de plaques à 96 puits et incubées à 37°C sous atmosphère humidifiée à 5% de CO2 avec 95% d'air. Après une incubation de 96 h, les plaques ont été lavées 3 fois avec du milieu et 100 µl de milieu ont été ajoutés. Diverses concentrations et contrôles appropriés ont ensuite été ajoutés (100 µl) et les plaques ont été incubées pendant 72 h à 37°C.
(§2) Chaque puits a ensuite été examiné au microscope pour détecter la formation possible de précipité avant l'aspiration du milieu. Une solution de MTT (0,5 mg/ml dans du RPMI, 100 µl) a ensuite été ajoutée à chaque puits. Les cellules ont été incubées pendant 2 h à 37°C. La solution de MTT a ensuite été éliminée et du DMSO (100 µl) a été ajouté pour dissoudre les cristaux de formazan résultants. Les plaques ont été secouées vigoureusement (300 tr/min) pendant 5 min.
(§3) L'absorbance a été mesurée à 570 nm avec un spectrophotomètre pour microplaques. Le DMSO a été utilisé comme blanc et la doxorubicine (Sigma Aldrich) comme contrôle positif. Les CC50 ont été calculés par analyse de régression non linéaire traitée sur des courbes dose-réponse, à l'aide du logiciel TableCurve 2D V5.

[3] = Cytotoxicity by MTT test on Thp1 cell line; assay type: cell-based, humains; details: human
Description: as §1, §2, §3

[4] = Leishmania infantum, read-out: Amastigotes axéniques de L. infantum CI50
[5] = Leishmania infantum, read-out: Amastigotes axéniques de L. infantum CI50, Tableau 2, mean of three independent experiments
[6] = Leishmania infantum, read-out: Amastigotes axéniques de L. infantum CI50, Tableau 3, separate experiments, mean of three independent experiments
[7] = Tableau 2, CC50 Thp1 / CI50 axenic amastigotes of L. infantum
[8] = Tableau 3, separate experiments, CC50 Thp1 / CI50 axenic amastigotes
[9] = Tableau 3, separate experiments, mean of three independent experiments, read-out: Thp1 CC50
[10] = read-out: CC50 sur la lignée cellulaire humaine Thp1
[11] = Tableau 2, 72 h incubation, mean of three independent experiments, read-out: Thp1 CC50

Row | Structure (SMILES) | IC50 [1, 4] [µM] | Indice de sélectivité CC50/IC50 SI [1, 7] | further results
1 | Fc1ccc(-n2cc[n+](-c3ccc4ccccc4n3)c2)cc1 [compound 19, Chlorurede 1-(4-Fluorophenyl)-3-(quinolin-2-yl)-1H-imidazol-3-ium] | > 50 |  | 
2 | C[C@@H]1[C@H](O)[C@@H](C)/C=C/C=C/C=C/C=C/C=C/C=C/C=C/[C@H](O[C@@H]2O[C@H](C)[C@@H](O)[C@H](N)[C@@H]2O)C[C@@H]2O[C@](O)(C[C@@H](O)C[C@@H](O)[C@H](O)CC[C@@H](O)C[C@@H](O)CC(=O)O[C@H]1C)C[C@H](O)[C@H]2C(=O)O [Amphotéricine B, reference compound] |  | 139,87 | IC50 [1, 5]: 0.075 µM; IC50 [1, 6]: 0.06 µM; Indice de sélectivité CC50/IC50 SI [1, 8]: 218,83; CC50 [2, 9]: 13.1 µM; CC50 [2, 10]: 10.5 µM
3 | FC(F)(F)Oc1ccc(-n2cc[n+](-c3ccc4ccccc4n3)c2)cc1 [compound 16, Chlorurede 3-(Quinolin-2-yl)-1-(4-(trifluoromethoxy)phenyl)-1H-imidazol-3-ium] | > 50 |  | 
4 | FC(F)(F)Oc1ccc(-n2cc[n+](-c3ccc4ccccc4n3)[c]2[Au-][Cl])cc1 [Complexe 31] |  | 136,42 | 
5 | FC(F)(F)c1cc(-n2cc[n+](Cc3ccccc3)c2)cc(C(F)(F)F)c1 [compound 7, Chlorurede 3-Benzyl-1-(3,5-bis(trifluoromethyl)phenyl)-1H-imidazol-3-ium] |  |  | IC50 ([1]; read-out: Amastigotes axéniques de L. infantum CI50, Tableau 2, mean of three independent experiments): > 50 µM
6 | FC(F)(F)Oc1cccc(-n2cc[n+](Cc3ccccc3)[c]2[Au-][Cl])c1 [Complexe 23] |  | 62,55 | 
7 | CC(=O)OCC1OC([S][Au-][c]2n(-c3ccc(OC(F)(F)F)cc3)cc[n+]2Cc2ccccc2)C(OC(C)=O)C(OC(C)=O)C1OC(C)=O (centres unmarked) [Complexe 36] |  | 53,92 | 
8 | FC(F)(F)Oc1ccc(-n2cc[n+](Cc3ccccc3)c2)cc1 [compound 6, Chlorurede 3-Benzyl-1-(4-(trifluorométhoxy)phényl)-1H-imidazol-3-ium] | > 50 |  | 
9 | CC(=O)OCC1OC([S][Au-][c]2n(-c3cccc(OC(F)(F)F)c3)cc[n+]2Cc2ccccc2)C(OC(C)=O)C(OC(C)=O)C1OC(C)=O (centres unmarked) [Complexe 38] |  | 23,15 | 
10 | CSc1ccc(OCc2ncc([N+](=O)[O-])n2C)cc1 [Fexinidazole, reference compound] | 3.4 | >104,41 | Indice de sélectivité CC50/IC50 SI ([1]; Tableau 2, CC50 Thp1 / CI50 axenic amastigotes of L. infantum, listed as fexinidazole): > 104,41; CC50 at 72 h [3, 11]: > 355 µM; CC50 at 72 h [3, 10]: > 355 µM
11 | CC(C)[n+]1ccn(-c2cccc(OC(F)(F)F)c2)c1 [compound 13, Bromurede 3-Isopropyl-1-(3-(trifluorométhoxy)phényl)-1H-imidazol-3-ium] | > 50 |  | 
12 | N=C(N)c1ccc(OCCCCCOc2ccc(C(=N)N)cc2)cc1 [Pentamidine, reference compound] |  | >4,74 | IC50 [1, 5]: 10.5 µM; IC50 [1, 6]: 1.36 µM; Indice de sélectivité CC50/IC50 SI ([1]; Tableau 2, CC50 Thp1 / CI50 axenic amastigotes of L. infantum, listed as pentamidine): > 4,74; Indice de sélectivité CC50/IC50 SI [1, 8]: 48.43; CC50 at 72 h [3, 11]: > 50 µM; CC50 at 72 h [3, 9]: 65.9 ± 7.49 µM; CC50 at 72 h [3, 10]: > 50 µM
13 | FC(F)(F)Oc1cccc(-n2cc[n+](-c3ccc4ccccc4n3)c2)c1 [compound 18, Chlorurede 3-(Quinolin-2-yl)-1-(3-(trifluoromethoxy)phenyl)-1H-imidazol-3-ium] | > 50 |  | 
14 | FC(F)(F)c1ccc(-n2cc[n+](-c3ccc4ccccc4n3)[c]2[Au-][Cl])cc1 [Complexe 35] |  | 130,05 | 
15 | CC(C)[n+]1ccn(-c2cc(C(F)(F)F)cc(C(F)(F)F)c2)c1 [compound 12, Bromurede 1-(3,5-Bis(trifluorométhyl)phényl)-3-isopropyl-1H-imidazol-3-ium] | > 50 |  | 
16 | CCCCCCCCCCCCCCCCOP(=O)([O-])OCC[N+](C)(C)C [Miltéfosine, reference compound] |  | 49,32 | IC50 [1, 5]: 0.71 µM; IC50 [1, 6]: 0.46 µM; Indice de sélectivité CC50/IC50 SI ([1]; Tableau 2, CC50 Thp1 / CI50 axenic amastigotes of L. infantum, listed as miltéfosine): 53,06; Indice de sélectivité CC50/IC50 SI [1, 8]: 76,13; CC50 [2, 9]: 35 µM; CC50 [2, 10]: 35 µM
17 | FC(F)(F)Oc1ccc(-n2cc[n+](Cc3ccccc3)[c]2[Au-][Cl])cc1 [Complexe 21] |  | 67,85 | 
18 | FC(F)(F)c1cc(-n2cc[n+](Cc3ccccc3)[c]2[Au-][Cl])cc(C(F)(F)F)c1 [Complexe 22] |  | 47,09 | 

Row | Structure (SMILES) | IC50 [1, 4] [µM] | Indice de sélectivité CC50/IC50 SI [1, 7] | further results
19 | CC(=O)OCC1OC([S][Au-][c]2n(-c3ccc(F)cc3)cc[n+]2C(C)C)C(OC(C)=O)C(OC(C)=O)C1OC(C)=O (centres unmarked) [Complexe 40] |  | 13.43 | 
20 | CC(C)[n+]1ccn(-c2ccc(OC(F)(F)F)cc2)[c]1[Au-][Cl] [Complexe 26] |  | 118,53 | 
21 | CC(C)[n+]1ccn(-c2ccc(C(F)(F)F)cc2)c1 [compound 15, Bromurede 3-Isopropyl-1-(4-(trifluoromethyl)phenyl)-1H-imidazol-3-ium] | > 50 |  | 
22 | Fc1ccc(-n2cc[n+](-c3ccc4ccccc4n3)[c]2[Au-][Cl])cc1 [Complexe 34] |  | 474,17 | 
23 | FC(F)(F)c1cc(-n2cc[n+](-c3ccc4ccccc4n3)c2)cc(C(F)(F)F)c1 [compound 17, Chlorurede 1-(3,5-Bis(trifluoromethyl)phenyl)-3-(quinolin-2-yl)-1H-imidazol-3-ium] |  | 3,07 | IC50 [1, 5]: 14.5 µM; activité anti-leishmanienne (in words) ([1]; axenic amastigotes of L. infantum): modérément actif; toxicité (in words) [2]: plutôt toxique
24 | FC(F)(F)Oc1cccc(-n2cc[n+](Cc3ccccc3)c2)c1 [compound 8, Chlorurede 3-Benzyl-1-(3-(trifluoromethoxy)phenyl)-1H-imidazol-3-ium chloride] | > 50 |  | 
25 | CC(=O)OCC1OC([S][Au-][c]2n(-c3cc(C(F)(F)F)cc(C(F)(F)F)c3)cc[n+]2C(C)C)C(OC(C)=O)C(OC(C)=O)C1OC(C)=O (centres unmarked) [Complexe 39] |  | 18,79 | 
26 | CC(C)[n+]1ccn(-c2cc(C(F)(F)F)cc(C(F)(F)F)c2)[c]1[Au-][Cl] [Complexe 27] |  | 119,72 | 
27 | FC(F)(F)c1ccc(-n2cc[n+](Cc3ccccc3)c2)cc1 [compound 10, Chlorurede 3-Benzyl-1-(4-(trifluoromethyl)phenyl)-1H-imidazol-3-ium chloride] | > 50 |  | 
28 | CC(=O)OCC1OC([S][Au-][c]2n(-c3cc(C(F)(F)F)cc(C(F)(F)F)c3)cc[n+]2Cc2ccccc2)C(OC(C)=O)C(OC(C)=O)C1OC(C)=O (centres unmarked) [Complexe 37] |  | 30,63 | 
29 | Fc1ccc(-n2cc[n+](Cc3ccccc3)c2)cc1 [compound 9, Chlorurede 3-Benzyl-1-(4-fluorophenyl)-1H-imidazol-3-ium chloride] | > 50 |  | 
30 | COc1cccc2c1C(=O)c1c(O)c3c(c(O)c1C2=O)C[C@@](O)(C(=O)CO)C[C@@H]3O[C@H]1C[C@H](N)[C@H](O)[C@H](C)O1 [Doxorubicine] |  |  | CC50 at 72 h [3, 11]: 0.7 µM; CC50 at 72 h [3, 9]: 0.7 µM
31 | FC(F)(F)c1ccc(-n2cc[n+](-c3ccc4ccccc4n3)c2)cc1 [compound 20] | > 50 |  | 
32 | CC(C)[n+]1ccn(-c2ccc(F)cc2)[c]1[Au-][Cl] [Complexe 29] |  | 178,50 | 
33 | CC(C)[n+]1ccn(-c2cccc(OC(F)(F)F)c2)[c]1[Au-][Cl] [Complexe 28] |  | 178.52 | 
34 | CC(C)[n+]1ccn(-c2ccc(OC(F)(F)F)cc2)c1 [compound 11, Bromurede 3-Isopropyl-1-(4-(trifluorométhoxy)phényl)-1H-imidazol-3-ium] | > 50 |  | 
35 | FC(F)(F)Oc1cccc(-n2cc[n+](-c3ccc4ccccc4n3)[c]2[Au-][Cl])c1 [Complexe 33] |  | 129,70 | 
36 | CC(C)[n+]1ccn(-c2ccc(F)cc2)c1 [compound 14, Bromurede 1-(4-Fluorophényl)-3-isopropyl-1H-imidazol-3-ium] | > 50 |  | 
